Reference: US11564913B2, “Compositions and methods for treating cancer” (Children's Hospital Medical Center, priority 2019, dated 2023)

Tested on: pPAK1(T423)/pPAK2(T402) in MDA-MB-231 cells
Assay: pPAK immunoblot
Format: cell-based, human
Conditions: 1 μM, 30 min
Protocol: FIG. 5: Cytoskeletal changes induced by IODVA1 treatment. IODVA1 inhibits lamellipodia and circular dorsal ruffle (CDR) formation in MDA-MB-231 cells and decreases Rac activation. (A) IODVA1 inhibits EGF-induced lamellipodia formation in MDA-MB-231 cells. MDA-MB-231 cells were plated on fibronectin-coated coverslips, serum starved for 4 h, incubated with the indicated concentrations of IODVA1 for 1 h, then EGF (50 ng/mL) stimulated, fixed and stained with Phalloidin Alexa Fluor 594 (F-Actin, pseudocolored red) and DAPI (nuclei, pseudocolored blue). […] The percentage of cells with CDRs was counted as the number of cells with CDRs normalized to the total number of cells in the field. Around 150 cells were counted per condition per experiment. Cells with multiple CDRs were counted only once. […] Levels of active Rac (RacGTP, % of control), active Cdc42 (Cdc42GTP, % of control) and active RhoA (RhoAGTP, % of control) were quantified using ImageJ and ImageLab and show combined data as mean±s.e.m. from at least 3 independent experiments. […]
To confirm that IODVA1 interferes with Rac activation, applicants checked the levels of active Rac and its downstream effector PAK1/2. MDA-MB-231 cells were incubated with IODVA1 (0-3 μM) for 1 h and levels of GTP-bound active Rac were measured by GST-PAK-GBD pull-downs and quantified (FIG. 5C). […]

OC1(c2ccccn2)N=C(Nc2nc3ccccc3[nH]2)N=C1c1ccccn1 (stereo not shown) [IODVA1, (Z)-2-((1H-benzo[d]imidazol-2-yl)imino)-4,5-di(pyridin-2-yl)-2,5-dihydro-1H-imidazol-5-ol]
decrease in levels of pPAK1/2 (T423/T402): 50%
